Counter-ions that a name gives are not always drawn.
Tests used:
[1] = tested on: bleomycin induced lung fibrosis; test: Bleomycin induced lung fibrosis model; type: in vivo; conditions: mouse, intranasal bleomycin, 15 mg/kg
Experimental: Bleomycin induced lung fibrosis in rodents is a widely accepted experimental model to determine the anti-fibrotic activity of therapeutic agents.
Fibrosis is induced by intranasal administered of bleomycin sulphate at a dose of 0.05 U/mouse in a total volume of 50 uL PBS (see Corbel, M., et al Inhibition of bleomycin-induced pulmonary fibrosis in mice by the matrix metalloproteinase inhibitor batimastat J Pathol. 2001 April; 193(4):538-45.) Compound 12 is given 0.1-100 mg/Kg throughout the period of the experimental procedure or 7 days after bleomycin administration and then throughout the entire study.
Formalin fixed lungs sections stained with haematoxylin and eosin are assessed for fibrosis as per the scale outlined by Ashcroft et al (Simple method of estimating severity of pulmonary fibrosis on a numerical scale J Clin Pathol 1988; 41:467-470).

[2] = tested on: Streptozotocin (STZ)-induced diabetic nephropathy; test: Streptozotocin induced diabetic nephropathy (kidney fibrosis) model; type: in vivo, mouse; conditions: diabetic eNOS knockout mice, 24 weeks, 0.1-100 mg/Kg
Experimental: Streptozotocin (STZ)-induced diabetic nephropathy is commonly used for creating rodent models of type 1 diabetes which develop renal injury, due to pancreatic cell damage with similarities to human diabetic nephropathy.
Diabetes is induced in eNOS knockout mice on C57BL/6 background by intraperitoneal STZ injection (55 mg/kg in 0.1 M citrate buffer) in mice of 6-9 weeks of age (see Huang C et al, Blockade of KCa3.1 ameliorates renal fibrosis through a TGF-bl/Smad pathway in diabetic mice. Diabetes, 2013 62(8):2923-2934).
Blood sugar level (BSL) is determined by tail vein blood. Mice with BSL>16 mmol/L two weeks post STZ injection are considered diabetic. Treatment with Compound 12 is carried out for 24 weeks from diagnosis of diabetes at a dose of 0.1-100 mg/Kg.

[3] = tested on: myocardial infarction induced fibrosis; test: Myocardial infarction induced fibrosis (carotic ligation) model; type: in vivo, mouse; conditions: mice, 0.1-100 mg/Kg once a day oral gavage, FIG. 5
From the text: Carotic ligation is a widely accepted experimental model to induce cardiac fibrosis and to determine the anti-fibrotic activity of therapeutic agents.
In mice, the chest is opened via a left thoracotomy. The left coronary artery is identified visually using a stereo microscope, and a 7-0 suture is placed around the artery 1-2 mm below the left auricle. Permanent occlusion of the left coronary artery resulted from its ligation with the suture. Myocardial ischemia was confirmed by pallor in heart color and ST-segment elevation. (see Parajuli et al. Phosphatase PTEN is critically involved in post-myocardial infarction remodeling through the Akt/interleukin-10 signaling pathway Basic Res Cardiol (2012) 107:248).
Mice were subjected to sham or carotic ligation surgery. At 24 hrs post-surgery, echocardiography was performed on the mice. Mice were treated with compound 25 0.1-100 mg/Kg once a day for 21 (7 days after carotic ligation) or 28 days or saline as vehicle controls by oral gavage. At the end of the experiment, echocardiography was repeated to assess left ventricular function and remodeling. Then mice were euthanized for heart collection. Each heart was photographed and fixed with 10% formalin. Hearts were sectioned for Masson's trichrome stain to measure fibrosis (See FIG. 5).

Row | Structure (SMILES) | Ashcroft score in the lungs [1] | kidney function by albumin/creatinine ratio quantification [2] | reduction of fibrosis by Masson's Trichrome staining (collagen expression and glomerular damage) ([2]; vs vehicle-treated group) | fibrosis after carotic ligation (Masson's trichrome stain) [3]
1 | CCOC(=O)c1ccc2c(c1)c(-c1cccc(S(=O)(=O)N(C)C)c1)c(C)n2C/C(F)=C/CN [Compound 12, (Z)-ethyl 1-(4-amino-2-fluorobut-2-en-1-yl)-3-(3-(N,N-dimethylsulfamoyl)phenyl)-2-methyl-1H-indole-5-carboxylate] | significantly reduced | significant improvement | up to 50% | –
2 | Cc1c(-c2cccc(S(=O)(=O)N(C)C)c2)c2ncccc2n1C/C(F)=C/CN [Compound 25, (Z)-3-(1-(4-amino-2-fluorobut-2-en-1-yl)-2-methyl-1H-pyrrolo[3,2-b]pyridin-3-yl)-N,N-dimethylbenzenesulfonamide Dihydrochloride] | – | – | – | reduce fibrosis

Reference: patent US10717733B2, “Haloallylamine indole and azaindole derivative inhibitors of lysyl oxidases and uses thereof” (PHARMAXIS LTD., priority 2016, dated 2020)
